Results on 21 compounds are retold here after ChEMBL document CHEMBL1136926 (J Med Chem, 2009).

In test [1] the target is T1, Urotensin-2 receptor (Rattus norvegicus, UniProt P49684).
T1 sequence (P49684 whole entry): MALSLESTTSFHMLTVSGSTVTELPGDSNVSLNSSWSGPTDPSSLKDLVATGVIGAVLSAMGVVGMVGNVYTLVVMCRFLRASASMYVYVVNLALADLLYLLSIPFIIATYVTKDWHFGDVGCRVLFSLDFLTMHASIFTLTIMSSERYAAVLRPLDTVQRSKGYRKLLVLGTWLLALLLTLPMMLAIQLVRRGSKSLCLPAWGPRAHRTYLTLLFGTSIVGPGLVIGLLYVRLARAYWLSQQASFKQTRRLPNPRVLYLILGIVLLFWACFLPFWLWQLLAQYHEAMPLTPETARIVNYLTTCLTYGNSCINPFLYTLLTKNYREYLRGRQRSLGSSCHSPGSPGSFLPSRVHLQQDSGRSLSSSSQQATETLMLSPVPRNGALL
Put plainly: Agonist activity at UT2 receptor in Albino rat aorta assessed as induction of aortic contraction.

In test [2] the target is T2, Urotensin-2 receptor (Homo sapiens, UniProt Q9UKP6).
T2 sequence (Q9UKP6 whole entry): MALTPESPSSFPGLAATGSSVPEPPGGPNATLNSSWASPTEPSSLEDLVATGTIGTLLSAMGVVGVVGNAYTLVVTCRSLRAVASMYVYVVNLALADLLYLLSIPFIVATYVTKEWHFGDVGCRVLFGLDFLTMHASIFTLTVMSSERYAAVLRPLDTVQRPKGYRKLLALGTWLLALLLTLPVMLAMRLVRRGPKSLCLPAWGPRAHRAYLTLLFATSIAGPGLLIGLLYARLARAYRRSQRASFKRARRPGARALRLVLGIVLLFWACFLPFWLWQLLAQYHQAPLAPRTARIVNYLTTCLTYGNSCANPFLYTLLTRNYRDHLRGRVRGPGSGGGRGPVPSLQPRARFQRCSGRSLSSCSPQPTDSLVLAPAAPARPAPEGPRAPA
Put plainly: Displacement of [125I]urotensin-2 from human UT2 receptor expressed in CHO-K1 cells by liquid scintillation counting. The class given is cell-based.

Test [3] concerns the target T3, Urotensin-2 receptor (Rattus norvegicus) (UniProt P49684).
T3 sequence (whole entry): T1 sequence (P49684 whole entry)
As to the kind of experiment: Antagonist activity at UT2 receptor in Albino rat aorta assessed as inhibition of […] aortic contraction. Type of test: functional, tissue-based.

Positions of bridges follow the written chain, without caps; N, C: chain ends. Non-standard residues stand in square brackets, D forms with d. Residues, ends and D or L forms follow the SMILES beside them. Phe(4-NO2) = N[C@@H](Cc1ccc([N+](=O)[O-])cc1)C(=O)O; Phe(4-Cl) = N[C@@H](Cc1ccc(Cl)cc1)C(=O)O; 1Nal = N[C@@H](Cc1cccc2ccccc12)C(=O)O; 2Nal = N[C@@H](Cc1ccc2ccccc2c1)C(=O)O; Tic = O=C(O)[C@@H]1Cc2ccccc2CN1; Pen = CC(C)(S)[C@H](N)C(=O)O

As for `CC(C)[C@H](NC(=O)[C@@H]1CSSC[C@H](NC(=O)[C@H](CC(=O)O)NC(=O)[C@@H]2CCCN2C(=O)[C@@H](NC(=O)[C@@H](N)CCC(=O)O)[C@@H](C)O)C(=O)N[C@@H](Cc2ccccc2)C(=O)N[C@@H](Cc2c[nH]c3ccccc23)C(=O)N[C@@H](CCCCN)C(=O)N[C@@H](Cc2ccc(O)cc2)C(=O)N1)C(=O)O` [HUMAN UROTENSIN II], on Urotensin-2 receptor [1], the EC50 (in general, the concentration giving half of the maximal effect) is 5.01 nM. The same measure, in the same setting: for `CC(C)[C@H](NC(=O)[C@@H]1CSSC[C@H](NC(=O)[C@@H](N)CC(=O)O)C(=O)N[C@@H](Cc2ccccc2)C(=O)N[C@@H](Cc2c[nH]c3ccccc23)C(=O)N[C@@H](CCCCN)C(=O)N[C@@H](Cc2ccc(O)cc2)C(=O)N1)C(=O)O` (H-DCFWKYCV-OH; disulfide 2-7) the value was 2.51 nM.

On to `CC(C)[C@H](NC(=O)[C@@H]1CSSC(C)(C)[C@H](NC(=O)[C@H](C)N)C(=O)N[C@@H](Cc2ccccc2)C(=O)N[C@H](Cc2c[nH]c3ccccc23)C(=O)N[C@@H](CCCN)C(=O)N[C@@H](Cc2ccc(O)cc2)C(=O)N1)C(=O)O`, for which affinity at Urotensin-2 receptor [2] was put at a Ki of 1.66 nM. As for `CC(C)[C@H](NC(=O)[C@@H]1CSSC(C)(C)[C@H](NC(=O)[C@H](C)N)C(=O)N[C@@H](Cc2ccccc2)C(=O)N[C@@H](Cc2c[nH]c3ccccc23)C(=O)N[C@@H](CCCCN)C(=O)N[C@@H](Cc2ccc(O)cc2)C(=O)N1)C(=O)O`, the EC50 on Urotensin-2 receptor [1] was 9.12 nM. Also, affinity on Urotensin-2 receptor [2] was put at a Ki of 0.794 nM. In the case of `CC(C)[C@H](NC(=O)[C@@H]1CSSC(C)(C)[C@@H](NC(=O)[C@H](C)N)C(=O)N[C@@H](Cc2ccccc2)C(=O)N[C@H](Cc2c[nH]c3ccccc23)C(=O)N[C@@H](CCCN)C(=O)N[C@@H](Cc2ccc(O)cc2)C(=O)N1)C(=O)O`, in test [3], the pKb (usually −log10 of the Kb, conventionally taken in molar units) was found to be 7.84. Take `CC(C)[C@H](NC(=O)[C@@H]1CSSC(C)(C)[C@H](NC(=O)[C@@H](N)Cc2ccc3ccccc3c2)C(=O)N[C@@H](Cc2ccccc2)C(=O)N[C@@H](Cc2c[nH]c3ccccc23)C(=O)N[C@@H](CCCCN)C(=O)N[C@@H](Cc2ccc(O)cc2)C(=O)N1)C(=O)O` (H-[2Nal][Pen]FWKYCV-OH; disulfide 2-7): at Urotensin-2 receptor [1], the EC50 is 5.25 nM. For the same compound, at Urotensin-2 receptor [2], the affinity corresponds to a Ki of 6.46 nM. For `CC(C)[C@H](NC(=O)[C@@H]1CSSC(C)(C)[C@H](NC(=O)[C@@H](N)CCCCN)C(=O)N[C@@H](Cc2ccccc2)C(=O)N[C@@H](Cc2c[nH]c3ccccc23)C(=O)N[C@@H](CCCCN)C(=O)N[C@@H](Cc2ccc(O)cc2)C(=O)N1)C(=O)O` (H-K[Pen]FWKYCV-OH; disulfide 2-7) the same measures were 6.03 nM and 9.33 nM. With `CC(C)[C@H](NC(=O)[C@@H]1CSSC(C)(C)[C@H](NC(=O)[C@@H](N)Cc2ccc(Cl)cc2)C(=O)N[C@@H](Cc2ccccc2)C(=O)N[C@@H](Cc2c[nH]c3ccccc23)C(=O)N[C@@H](CCCCN)C(=O)N[C@@H](Cc2ccc(O)cc2)C(=O)N1)C(=O)O` (H-[Phe(4-Cl)][Pen]FWKYCV-OH; disulfide 2-7), the EC50 on Urotensin-2 receptor [1] was 1.38 nM. In addition, on Urotensin-2 receptor [2], the Ki (usually the dissociation constant of the complex between target and ligand, obtained from inhibition or displacement) was 0.891 nM. For `CC(C)[C@H](NC(=O)[C@@H]1CSSC(C)(C)[C@H](NC(=O)[C@@H](N)Cc2ccc([N+](=O)[O-])cc2)C(=O)N[C@@H](Cc2ccccc2)C(=O)N[C@@H](Cc2c[nH]c3ccccc23)C(=O)N[C@@H](CCCCN)C(=O)N[C@@H](Cc2ccc(O)cc2)C(=O)N1)C(=O)O` (H-[Phe(4-NO2)][Pen]FWKYCV-OH; disulfide 2-7) the same measures were 72.4 nM and 13.5 nM. In the case of `CC(C)[C@H](NC(=O)[C@@H]1CSSC(C)(C)[C@@H](NC(=O)[C@@H](N)Cc2ccc(Cl)cc2)C(=O)N[C@@H](Cc2ccccc2)C(=O)N[C@H](Cc2c[nH]c3ccccc23)C(=O)N[C@@H](CCCN)C(=O)N[C@@H](Cc2ccc(O)cc2)C(=O)N1)C(=O)O`, the pKb in test [3] is 7.85. `CC(C)[C@H](NC(=O)[C@@H]1CSSC(C)(C)[C@H](NC(=O)[C@@H](N)CC(=O)O)C(=O)N[C@@H](Cc2ccccc2)C(=O)N[C@@H](Cc2c[nH]c3ccccc23)C(=O)N[C@@H](CCCCN)C(=O)N[C@@H](Cc2ccc(O)cc2)C(=O)N1)C(=O)O` (H-D[Pen]FWKYCV-OH; disulfide 2-7): the EC50 at Urotensin-2 receptor [1] was 0.251 nM. Consider `CC(C)[C@H](NC(=O)[C@@H]1CSSC(C)(C)[C@H](NC(=O)[C@@H](N)Cc2ccccc2)C(=O)N[C@@H](Cc2ccccc2)C(=O)N[C@@H](Cc2c[nH]c3ccccc23)C(=O)N[C@@H](CCCCN)C(=O)N[C@@H](Cc2ccc(O)cc2)C(=O)N1)C(=O)O` (H-F[Pen]FWKYCV-OH; disulfide 2-7), for which the EC50 at Urotensin-2 receptor [1] is 0.661 nM. For the same compound, the Ki at Urotensin-2 receptor [2] was 0.282 nM. At Urotensin-2 receptor [2], `CC(C)[C@H](NC(=O)[C@@H]1CSSC(C)(C)[C@H](NC(=O)[C@@H](N)CCCCN)C(=O)N[C@@H](Cc2ccccc2)C(=O)N[C@H](Cc2c[nH]c3ccccc23)C(=O)N[C@@H](CCCN)C(=O)N[C@@H](Cc2ccc(O)cc2)C(=O)N1)C(=O)O` had a Ki of 219 nM.

For `CC(C)[C@H](NC(=O)[C@@H]1CSSC(C)(C)[C@H](NC(=O)[C@@H](N)Cc2ccccc2)C(=O)N[C@@H](Cc2ccccc2)C(=O)N[C@H](Cc2c[nH]c3ccccc23)C(=O)N[C@@H](CCCN)C(=O)N[C@@H](Cc2ccc(O)cc2)C(=O)N1)C(=O)O`, the Ki on Urotensin-2 receptor [2] was 19.5 nM. Still for that read-out and setting: with `CC(C)[C@H](NC(=O)[C@@H]1CSSC(C)(C)[C@H](NC(=O)[C@@H](N)Cc2ccc3ccccc3c2)C(=O)N[C@@H](Cc2ccccc2)C(=O)N[C@H](Cc2c[nH]c3ccccc23)C(=O)N[C@@H](CCCN)C(=O)N[C@@H](Cc2ccc(O)cc2)C(=O)N1)C(=O)O` the figure was 11.7 nM.

`CC(C)[C@H](NC(=O)[C@@H]1CSSC(C)(C)[C@H](NC(=O)[C@@H]2Cc3ccccc3CN2)C(=O)N[C@@H](Cc2ccccc2)C(=O)N[C@@H](Cc2c[nH]c3ccccc23)C(=O)N[C@@H](CCCCN)C(=O)N[C@@H](Cc2ccc(O)cc2)C(=O)N1)C(=O)O` (H-[Tic][Pen]FWKYCV-OH; disulfide 2-7): the EC50 on Urotensin-2 receptor [1] is 1.35 nM. The Ki at Urotensin-2 receptor [2] is 2.63 nM. The compound `CC(C)[C@H](NC(=O)[C@@H]1CSSC(C)(C)[C@H](NC(=O)[C@@H](N)Cc2ccc(Cl)cc2)C(=O)N[C@@H](Cc2ccccc2)C(=O)N[C@H](Cc2c[nH]c3ccccc23)C(=O)N[C@@H](CCCN)C(=O)N[C@@H](Cc2ccc(O)cc2)C(=O)N1)C(=O)O` had a Ki on Urotensin-2 receptor [2] of 9.55 nM. Consider `CC(C)[C@H](NC(=O)[C@@H]1CSSC(C)(C)[C@H](NC(=O)[C@@H](N)Cc2cccc3ccccc23)C(=O)N[C@@H](Cc2ccccc2)C(=O)N[C@@H](Cc2c[nH]c3ccccc23)C(=O)N[C@@H](CCCCN)C(=O)N[C@@H](Cc2ccc(O)cc2)C(=O)N1)C(=O)O` (H-[1Nal][Pen]FWKYCV-OH; disulfide 2-7), for which the EC50 at Urotensin-2 receptor [1] was 102 nM. Moreover, the Ki on Urotensin-2 receptor [2] is 26.3 nM.

Consider `CC(C)[C@H](NC(=O)[C@@H]1CSSC(C)(C)[C@H](NC(=O)[C@@H](N)Cc2cccc3ccccc23)C(=O)N[C@@H](Cc2ccccc2)C(=O)N[C@H](Cc2c[nH]c3ccccc23)C(=O)N[C@@H](CCCN)C(=O)N[C@@H](Cc2ccc(O)cc2)C(=O)N1)C(=O)O`, for which the Ki at Urotensin-2 receptor [2] was 3.89 nM. On Urotensin-2 receptor [2], `CC(C)[C@H](NC(=O)[C@@H]1CSSC(C)(C)[C@H](NC(=O)[C@@H]2Cc3ccccc3CN2)C(=O)N[C@@H](Cc2ccccc2)C(=O)N[C@H](Cc2c[nH]c3ccccc23)C(=O)N[C@@H](CCCN)C(=O)N[C@@H](Cc2ccc(O)cc2)C(=O)N1)C(=O)O` gave a Ki of 9.33 nM. The same measure, in the same setting: with `CC(C)[C@H](NC(=O)[C@@H]1CSSC(C)(C)[C@H](NC(=O)[C@@H](N)Cc2ccc([N+](=O)[O-])cc2)C(=O)N[C@@H](Cc2ccccc2)C(=O)N[C@H](Cc2c[nH]c3ccccc23)C(=O)N[C@@H](CCCN)C(=O)N[C@@H](Cc2ccc(O)cc2)C(=O)N1)C(=O)O` the figure was 15.8 nM.
